Measured values from paper PMC7395068, “The evolution of strategies to minimise the risk of human drug-induced liver injury (DILI) in drug discovery and development” (Archives of Toxicology, 2020).
Where two headings read alike, the source gives them in different places.

How the values were obtained:
HepaRG spheroids = assay: Combined HCI (HCS) and cellular ATP 3D assay in HepaRG spheroids; conditions: HepaRG; for AC50 / minimal effective concentration: Homo sapiens
[1] = test system: isolated mouse liver mitochondria; conditions: In vitro Assay; ref Porceddu 2012; cited from earlier work
[2] = test system: THLE-Null and THLE-3A4 cells; conditions: In vitro Assay; ref Gustafsson 2014; cited from earlier work
PHH = conditions: cited from earlier work; for PHH ATP <100uM: In vitro Assay, ref Proctor 2017
hLiMTs [3] = assay: Combined HCI (HCS) and cellular ATP 3D assay in hLiMTs; conditions: for AC50 / minimal effective concentration: Homo sapiens
hLiMTs [4] = conditions: cited from earlier work; for hLiMTs ATP <100uM: In vitro Assay, ref Proctor 2017
HepG2 cells [5] = conditions: In vitro Assay; ref Persson 2013; cited from earlier work
HepG2 cells [6] = conditions: cited from earlier work
HepG2 cells [7] = conditions: cited from earlier work; remark: listed apart in the source
[8] = test system: HepG2 cells, primary human hepatocytes; conditions: In vitro Assay; ref Garside 2014; cited from earlier work
human hepatocytes = conditions: In vitro Assay; ref Xu 2008; cited from earlier work
[9] = cited from earlier work
[10] = cited from earlier work; remark: listed apart in the source
[11] = test system: THLE or HepG2 cells, isolated mitochondria, BSEP; conditions: cited from earlier work
[12] = ref Chen 2011, cited from earlier work
PHH spheroids = conditions: cited from earlier work
[13] = test system: HepG2 C3A spheroid, BSEP, Glu/Gal in HepG2 cells, bioactivation; conditions: In vitro Assay; ref Williams 2019; cited from earlier work
[14] = In vitro Assay, ref Tolosa 2012
[15] = In vitro Assay, ref O'Brien 2006
[16] = In vitro Assay, ref Vorrink 2018

Compound: CCCCc1oc2ccccc2c1C(=O)c1cc(I)c(OCCN(CC)CC)c(I)c1 [amiodarone]
- HepaRG <10 uM All (HepaRG spheroids; all endpoints, cut-off <10 uM): +ve (<10 uM)
- AC50 (HepaRG spheroids; read-out: ATP endpoint AC50): 112 µM
- minimal effective concentration (HepaRG spheroids; read-out: ATP endpoint MEC): 98.8 µM
- AC50 (HepaRG spheroids; read-out: HCS endpoint AC50): 13.1 µM
- minimal effective concentration (HepaRG spheroids; read-out: HCS endpoint MEC): 4.62 µM
- in vitro data EC20<=2uM [1]: +VE
- THLE-Null [2]: +VE
- PHH/100uM, Proctor (2017) (PHH; 2D PHH, ATP, IC50 threshold 100 µM, ref Proctor et al. 2017): +VE (IC50 threshold of 100 µM)
- PHH ATP <100uM (PHH): +VE (IC50 threshold of 100 µM)
- AC50 (hLiMTs [3]; read-out: ATP endpoint AC50): 5.33 µM
- minimal effective concentration (hLiMTs [3]; read-out: ATP endpoint MEC): 4.58 µM
- AC50 (hLiMTs [3]; read-out: HCS endpoint AC50): 28.2 µM
- minimal effective concentration (hLiMTs [3]; read-out: HCS endpoint MEC): 6.51 µM
- hLiMTs <10 uM All (hLiMTs [3]; hLiMTs, all endpoints, cut-off <10 uM): +ve (<10 uM)
- hLiMTs ATP <100uM (hLiMTs [4]): +VE (IC50 threshold of 100 µM)
- hLiMTs/100uM, Proctor (2017) (hLiMTs [4]; hLiMTs, ATP, IC50 threshold 100 µM, ref Proctor et al. 2017): +VE (IC50 threshold of 100 µM)
- Cluser analysis (HepG2 cells [5]): +VE
- Structural based (HCI) (HepG2 cells [5]): +VE
- Structural based (HCI) (HepG2 cells [6]; [14]): +VE
- Structural based (HCI) (HepG2 cells [7]; [15]): +VE

Compound: CN(C)CCC=C1c2ccccc2CCc2ccccc21 [amitriptyline]
- Cluster 1-6 +VE Assay [8]: +VE
- Structural based (HCI) (human hepatocytes): -VE
- PHH ATP <100uM (PHH): +VE (IC50 threshold of 100 µM)
- DILI +VE (5-8), DILI -VE (-4) ([9]; ref Chen 2016): +VE
- DILI severity category ([9]; ref Chen 2016): vLess-DILI-Concern
- hLiMTs ATP <100uM (hLiMTs [4]): +VE (IC50 threshold of 100 µM)
- Cluser analysis (HepG2 cells [5]): +VE
- Structural based (HCI) (HepG2 cells [5]): +VE
- Structural based (HCI) (HepG2 cells [6]; [14]): +VE
- Structural based (HCI) (HepG2 cells [7]; [15]): -VE
- In vivo DILI ([10]; […]): +VE
- In vivo DILI ([10]; ref Garside 2014): +VE
- In vivo DILI ([10]; ref O'Brien 2006): +VE
- In vivo DILI ([10]; ref Persson 2013): +VE
- In vivo DILI ([10]; ref Proctor 2017): +VE
- In vivo DILI ([10]; ref Tolosa 2012): +VE
- In vivo DILI ([10]; ref Xu 2008): -VE

Compound: CCN(CC)CCCC(C)Nc1ccnc2cc(Cl)ccc12 (stereo not drawn) [chloroquine]
- DILI +VE (5-8), DILI -VE (-4) ([9]; in vivo): +VE
- DILI severity category ([9]; in vivo): vLess-DILI-Concern
- Structural based (HCI) (HepG2 cells [6]): +VE
- Ro2 Hybrid HRM Score [11]: +VE
- Structural based (HCI) (HepG2 cells [7]): +VE

Compound: C[S+](C)[O-] [dimethyl dulfoxide]
- Cluser analysis (HepG2 cells [5]): -VE
- Structural based (HCI) (HepG2 cells [5]): -VE
- Structural based (HCI) (HepG2 cells [6]; [14]): -VE
- In vivo DILI ([10]; ref Persson 2013): -VE
- In vivo DILI ([10]; ref Tolosa 2012): -VE

Compound: C[C@H]1c2cccc(O)c2C(=O)C2=C(O)[C@]3(O)C(=O)C(C(N)=O)=C(O)[C@@H](N(C)C)[C@@H]3[C@@H](O)[C@@H]21 [doxycycline]
- DILI +VE (5-8), DILI -VE (-4) ([9]; binary in vivo human DILI call, ref Chen 2016): +VE
- DILI severity category ([9]; human DILI, LTKB DILIrank category, ref Chen 2016): vLess-DILI-Concern
- Structural based (HCI) (HepG2 cells [6]; [14]): +VE
- DILI Score (FDA) (1-8) ([12]; FDA drug labelling score, scale 1-8): 3
- In vivo DILI ([10]; ref Tolosa 2012): +VE

Compound: CC[C@H](C)C(=O)O[C@H]1C[C@@H](C)C=C2C=C[C@H](C)[C@H](CC[C@@H]3C[C@@H](O)CC(=O)O3)[C@H]21 [lovastatin]
- Structural based (HCI) (human hepatocytes): -VE
- in vitro data EC2<=1x Cmax [1]: -VE
- in vitro data EC20<=2uM [1]: +VE
- Structural based (HCI) (HepG2 cells [6]; [14]): +VE
- Structural based (HCI) (HepG2 cells [7]; [15]): -VE

Compound: CNCCCC12CCC(c3ccccc31)c1ccccc12 [maprotiline]
- Structural based (HCI) (human hepatocytes): -VE
- DILI +VE (5-8), DILI -VE (-4) ([9]; ref Chen 2016): -VE
- DILI severity category ([9]; ref Chen 2016): Ambiguous DILI-concern
- Structural based (HCI) (HepG2 cells [6]; [14]): +VE
- Partition Hybrid HRM Score ([11]; In vitro Assay, ref Aleo 2019): +VE
- Ro2 Hybrid HRM Score ([11]; In vitro Assay, ref Aleo 2019): +VE
- In vivo DILI ([10]; […]): -VE
- In vivo DILI ([10]; ref Tolosa 2012): +VE
- In vivo DILI ([10]; ref Xu 2008): -VE

Compound: CC1=CC(=O)c2ccccc2C1=O [menadione]
- Cluser analysis (HepG2 cells [5]): +VE
- Structural based (HCI) (HepG2 cells [5]): +VE
- Structural based (HCI) (HepG2 cells [6]; [14]): +VE
- Structural based (HCI) (HepG2 cells [7]; [15]): +VE (lowest HCI endpoint IC50 (or in the absence of dose–response < 100 µM) < 30 × total human plasma exposure levels (Cmax.tot))
- In vivo DILI ([10]; ref O'Brien 2006): -VE
- In vivo DILI ([10]; ref Persson 2013): +VE
- In vivo DILI ([10]; ref Tolosa 2012): +VE

Compound: Cc1ccccc1C(OCCN(C)C)c1ccccc1 (stereo not drawn) [orphenadrine]
- Structural based (HCI) (human hepatocytes): -VE
- PHH ATP <100uM (PHH): -VE
- DILI +VE (5-8), DILI -VE (-4) ([9]; ref Chen 2016): -VE
- DILI severity category ([9]; ref Chen 2016): vNo-DILI-Concern
- hLiMTs ATP <20 x Cmax (PHH spheroids; [16]): -VE
- hLiMTs ATP <100uM (hLiMTs [4]): -VE
- Structural based (HCI) (HepG2 cells [6]; [14]): +VE
- Bayesian Machine Learning [13]: -VE
- In vivo DILI ([10]; […]): -VE
- In vivo DILI ([10]; ref Proctor 2017): -VE
- In vivo DILI ([10]; ref Tolosa 2012): +VE
- In vivo DILI ([10]; ref Vorrink 2018): -VE
- In vivo DILI ([10]; ref Williams 2019): -VE
- In vivo DILI ([10]; ref Xu 2008): -VE

Compound: O=C1NC(=O)C(c2ccccc2)(c2ccccc2)N1 [phenytoin]
- Structural based (HCI) (human hepatocytes): +VE
- DILI +VE (5-8), DILI -VE (-4) ([9]; ref Chen 2016): +VE
- DILI severity category ([9]; ref Chen 2016): vMost-DILI-Concern
- hLiMTs ATP <20 x Cmax (PHH spheroids; [16]): -VE
- Structural based (HCI) (HepG2 cells [6]; [14]): +VE
- DILI Score (FDA) (1-8) [12]: 3
- In vivo DILI ([10]; […]): +VE
- In vivo DILI ([10]; ref Tolosa 2012): +VE
- In vivo DILI ([10]; ref Vorrink 2018): +VE
- In vivo DILI ([10]; ref Xu 2008): +VE

Compound: aflatoxin b1
- hLiMTs ATP <20 x Cmax (PHH spheroids): +VE (key: +VE: IC20 < 20 × Cmax.tot cut-off)
- Structural based (HCI) (HepG2 cells [6]): +VE
- In vivo DILI ([10]; in vivo): +VE

Compound: gentamycin
- in vitro data EC2<=1x Cmax [1]: +VE
- in vitro data EC20<=2uM [1]: +VE
- Structural based (HCI) (HepG2 cells [6]; [14]): -VE
- Structural based (HCI) (HepG2 cells [7]; [15]): +VE
- In vivo DILI ([10]; […]): -VE
- In vivo DILI ([10]; ref O'Brien 2006): -VE
- In vivo DILI ([10]; ref Porceddu 2012): +VE
- In vivo DILI ([10]; ref Tolosa 2012): -VE
